The values below come from US9856279B2 (AGIOS PHARMACEUTICALS, INC, priority 2011, dated 2018).

Sequence of IDH1 R132H (O75874 whole entry R132H): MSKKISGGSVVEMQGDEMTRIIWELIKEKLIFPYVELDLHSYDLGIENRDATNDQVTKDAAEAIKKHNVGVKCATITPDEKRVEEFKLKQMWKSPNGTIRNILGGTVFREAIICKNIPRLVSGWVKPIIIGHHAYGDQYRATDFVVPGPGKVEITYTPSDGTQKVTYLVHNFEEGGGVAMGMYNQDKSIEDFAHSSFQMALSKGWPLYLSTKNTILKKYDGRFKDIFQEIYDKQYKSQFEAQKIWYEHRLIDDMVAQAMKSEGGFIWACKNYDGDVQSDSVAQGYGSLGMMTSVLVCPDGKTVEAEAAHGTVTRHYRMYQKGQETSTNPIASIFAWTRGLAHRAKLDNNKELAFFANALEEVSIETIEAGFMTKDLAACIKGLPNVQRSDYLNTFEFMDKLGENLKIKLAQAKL

The target in one assay is IDH1 R132H (Homo sapiens, UniProt O75874, R132H). The assay can be described thus: Assay for IDH1 R132H inhibitors (NADPH/aKG, resazurin detection). The class given is biochemical. Conditions: Table 3; enzyme assay, 50 minutes at room temperature; read-out: IC50 (IDH1 R132H Inhibition). The gist of the method:
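Read-out is resorufin fluorescence (Ex544/Em590) 5 min after adding a 30 μM resazurin detection mix. Before that, mutant enzyme (0.2 μg/ml in its mix) ran 50 min at room temperature with compound, 8 uM NADPH and 2 mM aKG (mix levels) in Tris pH 7.5 with NaCl, MgCl2, BSA.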
On the technique in general: Resazurin is reduced to fluorescent resorufin, in cell work by metabolically active cells.
In general, IC50 refers to the concentration at which inhibition is half-maximal. Take `COCCC(=O)N1CCN(c2nc(C(C)C)c(-c3cncc4ccccc34)cc2C#N)C[C@H]1C` [Compound 234, (R)-6-isopropyl-5-(isoquinolin-4-yl)-2-(4-(3-methoxypropanoyl)-3-methylpiperazin-1-yl)nicotinonitrile]: the IC50 is at most 1000 nM. On the same count and under the same terms, under `COc1ccccc1-c1cc(C(C)C)nc(N2CCN(C(=O)c3ccccc3)CC2)c1C#N` [Compound 105, 2-(4-benzoylpiperazin-1-yl)-6-isopropyl-4-(2-methoxyphenyl)nicotinonitrile] stands 1000 to 5000 nM. On the same count and under the same terms, with `Cc1occc1C(=O)N1CCN(c2nc(C(C)C)c(-c3ccc(C(F)(F)F)cc3)cc2C#N)C[C@H]1C` [Compound 201, (R)-6-isopropyl-2-(3-methyl-4-(2-methylfuran-3-carbonyl)piperazin-1-yl)-5-(4-(trifluoromethyl)phenyl)-nicotinonitrile] the figure was 1000 to 5000 nM; with `COCCC(=O)N1CCN(c2nc(C(C)C)c(OCc3ccccc3)cc2C#N)C[C@H]1C` [Compound 254, (R)-5-(benzyloxy)-6-isopropyl-2-(4-(3-methoxypropanoyl)-3-methylpiperazin-1-yl)nicotinonitrile], 1000 to 5000 nM. Same read-out and setting: with `COCCC(=O)N1CCN(c2nc(C(C)C)c(-c3ccc4ccccc4c3)cc2C#N)C[C@H]1C` [Compound 211, (R)-6-isopropyl-2-(4-(3-methoxypropanoyl)-3-methylpiperazin-1-yl)-5-(naphthalen-2-yl)nicotinonitrile] the figure was 1000 to 5000 nM. Take `CC1CN(c2nc(-c3ccccc3)c(-c3ccccc3)cc2C#N)CCN1C(=O)c1ccco1` (centres unmarked) [Compound 117, 2-(4-(furan-2-carbonyl)-3-methylpiperazin-1-yl)-5,6-diphenylnicotinonitrile]: the IC50 was in the range of 5000 to 15000 nM. Still for that read-out and setting: with `COCCC(=O)N1CCN(c2nc(C(C)C)c(-c3ccc(C)c(C)c3)cc2C#N)C[C@H]1C` [Compound 220, (R)-5-(3,4-dimethylphenyl)-6-isopropyl-2-(4-(3-methoxypropanoyl)-3-methylpiperazin-1-yl)nicotinonitrile] the figure was 1000 to 5000 nM; with `CC(C)c1cc(-c2ccccc2)c(C#N)c(N2CCN(C(=O)c3ccoc3)CC2c2ccccc2)n1` (centres unmarked) [Compound 160, 2-(4-(furan-3-carbonyl)-2-phenylpiperazin-1-yl)-6-isopropyl-4-phenylnicotinonitrile], 5000 to 15000 nM. Take `CC(C)c1nc(N2CCN(C(=O)c3ccoc3)[C@H](C)C2)c(C#N)cc1-c1cccc(F)c1` [Compound 161, (R)-5-(3-fluorophenyl)-2-(4-(furan-3-carbonyl)-3-methylpiperazin-1-yl)-6-isopropylnicotinonitrile]: the IC50 was 1000 to 5000 nM. The same measure, in the same setting: under `COc1ccccc1-c1cc(C#N)c(N2CCN(C(=O)c3ccoc3)[C@H](C)C2)nc1C(C)C` [Compound 175, (R)-2-(4-(furan-3-carbonyl)-3-methylpiperazin-1-yl)-6-isopropyl-5-(2-methoxyphenyl)nicotinonitrile] stands 1000 to 5000 nM. For the compound `COCCC(=O)N1CCN(c2nc(C(C)C)c(-c3ccoc3)cc2C#N)C[C@H]1C` [Compound 205, (R)-5-(furan-3-yl)-6-isopropyl-2-(4-(3-methoxypropanoyl)-3-methylpiperazin-1-yl)nicotinonitrile], the IC50 is 1000 to 5000 nM. The same measure, in the same setting: under `CC(C)c1nc(N2CCN(C(=O)c3ccco3)CC2)c(C#N)cc1-c1ccccc1` [Compound 109, 2-(4-(furan-2-carbonyl)piperazin-1-yl)-6-isopropyl-5-phenylnicotinonitrile] stands 5000 to 15000 nM; under `CC(C)c1nc(N2CCN(C(=O)c3c[nH]c4ccccc34)CC2c2ccccc2)c(C#N)cc1-c1ccccc1` (centres unmarked) [Compound 168, 2-(4-(1H-indole-3-carbonyl)-2-phenylpiperazin-1-yl)-6-isopropyl-5-phenylnicotinonitrile], 1000 to 5000 nM; under `CCOc1ccccc1-c1cc(C#N)c(N2CCN(C(=O)c3ccco3)C[C@@H]2C)nc1C(C)C` [Compound 184, (S)-5-(2-ethoxyphenyl)-2-(4-(furan-2-carbonyl)-2-methylpiperazin-1-yl)-6-isopropylnicotinonitrile], 1000 to 5000 nM. As for `COCCC(=O)N1CCN(c2nc(C3CC3)c(-c3ccc(OC)c(OC)c3)cc2C#N)C[C@H]1C` [Compound 237, (R)-6-cyclopropyl-5-(3,4-dimethoxyphenyl)-2-(4-(3-methoxypropanoyl)-3-methylpiperazin-1-yl)nicotinonitrile], the IC50 fell in the range of 1000 to 5000 nM.

The assay is the same for the next values; noted with them: enzyme assay of Example 12; read-out: IDH1R132H IC50.
Take `N#Cc1cc(-c2ccnc(Cl)c2F)c(C2CC2)nc1N1CCN(C(=O)C2CC2)[C@H](C2CC2)C1` [Compound 509, (R)-2′-chloro-6-(4-(cyclopropanecarbonyl)-3-cyclopropylpiperazin-1-yl)-2-cyclopropyl-3′-fluoro-3,4′-bipyridine-5-carbonitrile]: the IC50 lay in the range of 500 to 1000 nM.

Consider `N#Cc1cc(-c2ccnc(N)n2)c(C2CC2)nc1N1CCN(C(=O)CC(F)(F)F)[C@H](C2CC2)C1` [Compound 534], for which the IC50 is under 500 nM.

For `CC(C)(C)OC(=O)Nc1cnnc(-c2cc(C#N)c(N3CCN(C(=O)CCO)[C@H](C4CC4)C3)nc2C2CC2)c1` [Compound 723, (R)-tert-butyl(6-(5-cyano-2-cyclopropyl-6-(3-cyclopropyl-4-(3-hydroxypropanoyl)piperazin-1-yl)pyridin-3-yl)pyridazin-4-yl)carbamate], the IC50 is under 500 nM. `N#Cc1cc(-c2cn[nH]c2)c(C2CC2)nc1N1CCN(C(=O)C2CC2)[C@H](C2CC2)C1` [Compound 479, (R)-2-(4-(cyclopropanecarbonyl)-3-cyclopropylpiperazin-1-yl)-6-cyclopropyl-5-(1H-pyrazol-4-yl)nicotinonitrile]: the IC50 lay in the range of 500 to 1000 nM. The same measure, in the same setting: with `C=Cc1nc(-c2cc(C#N)c(N3CCN(C(=O)CCOC)[C@H](C)C3)nc2C2CC2)ncc1F` [Compound 601, (R)-6-cyclopropyl-5-(5-fluoro-4-vinylpyrimidin-2-yl)-2-(4-(3-methoxypropanoyl)-3-methylpiperazin-1-yl)nicotinonitrile] the figure was under 500 nM; with `COCCC(=O)N1CCN(c2nc(C3CC3)c(-c3cnnc(OS(=O)(=O)C(F)(F)F)c3)cc2C#N)C[C@H]1C` [Compound 614, (R)-5-(5-cyano-2-cyclopropyl-6-(4-(3-methoxypropanoyl)-3-methylpiperazin-1-yl)pyridin-3-yl)pyridazin-3-yl trifluoromethanesulfonate], under 500 nM; with `C=Cc1cc(-c2cc(C#N)c(N3CCN(C(=O)CO)[C@H](C)C3)nc2C2CC2)ccn1` [Compound 632, (R)-2-cyclopropyl-6-(4-(2-hydroxyacetyl)-3-methylpiperazin-1-yl)-2′-vinyl-3,4′-bipyridine-5-carbonitrile], under 500 nM.

For the compound `N#Cc1cc(-c2cnnc3ccccc23)c(C2CC2)nc1N1CCN(C(=O)C2CC2)[C@H](C2CC2)C1` [Compound 495, (R)-5-(cinnolin-4-yl)-2-(4-(cyclopropanecarbonyl)-3-cyclopropylpiperazin-1-yl)-6-cyclopropylnicotinonitrile], the IC50 fell in the range of 500 to 1000 nM. With `C[C@@H]1CN(c2nc(C3CC3)c(-c3cccc4ncoc34)cc2C#N)CCN1C(=O)C1CC1` [Compound 482, (R)-5-(benzo[d]oxazol-7-yl)-2-(4-(cyclopropanecarbonyl)-3-methylpiperazin-1-yl)-6-cyclopropylnicotinonitrile], the IC50 was under 500 nM. For `N#Cc1cc(-c2cnn(CC(N)=O)c2)c(C2CC2)nc1N1CCN(C(=O)C2CC2)[C@H](C2CC2)C1` [Compound 501, (R)-2-(4-(5-cyano-6-(4-(cyclopropanecarbonyl)-3-cyclopropylpiperazin-1-yl)-2-cyclopropylpyridin-3-yl)-1H-pyrazol-1-yl)acetamide], the IC50 lay within 500 to 1000 nM.

With `C[C@@H]1CN(c2nc(C3CC3)c(Oc3ccnc(Cl)c3)cc2C#N)CCN1C(=O)CCO` [Compound 704, (R)-5-((2-chloropyridin-4-yl)oxy)-6-cyclopropyl-2-(4-(3-hydroxypropanoyl)-3-methylpiperazin-1-yl)nicotinonitrile], the IC50 is under 500 nM. Still for that read-out and setting: under `N#Cc1cc(-c2cnnc(O)c2)c(C2CC2)nc1N1CCN(C(=O)C2CC2)[C@H](C2CC2)C1` [Compound 616, (R)-2-(4-(cyclopropanecarbonyl)-3-cyclopropylpiperazin-1-yl)-6-cyclopropyl-5-(6-hydroxypyridazin-4-yl)nicotinonitrile] stands under 500 nM; under `CNc1cccc(-c2cc(C#N)c(N3CCN(C(=O)CCOC)[C@H](C)C3)nc2C2CC2)c1` [Compound 414, (R)-6-cyclopropyl-2-(4-(3-methoxypropanoyl)-3-methylpiperazin-1-yl)-5-(3-(methylamino)phenyl)nicotinonitrile], 500 to 1000 nM. The same measure, in the same setting: under `COCCC(=O)N1CCN(c2nc(C3CC3)c(-c3cccc(S(C)(=O)=O)c3)c(C)c2C#N)C[C@H]1C` [Compound 329, (R)-6-cyclopropyl-5-(3-methanesulfonyl-phenyl)-2-[4-(3-methoxy-propionyl)-3-methyl-piperazin-1-yl]-4-methyl-nicotinonitrile] stands 500 to 1000 nM; under `Cc1cc(-c2cc(C#N)c(N3CCN(C(=O)C4CC4)[C@H](C4CC4)C3)nc2C2CC2)ccn1` [Compound 523, (R)-6-(4-(cyclopropanecarbonyl)-3-cyclopropylpiperazin-1-yl)-2-cyclopropyl-2′-methyl-3,4′-bipyridine-5-carbonitrile], 500 to 1000 nM. The same measure, in the same setting: with `N#Cc1cc(Nc2ccnc(CO)c2)c(C2CC2)nc1N1CCN(C(=O)C[C@H]2CCO2)[C@H](C2CC2)C1` [Compound 824, 6-cyclopropyl-2-((R)-3-cyclopropyl-4-(2-((R)-oxetan-2-yl)acetyl)piperazin-1-yl)-5-((2-(hydroxymethyl)pyridin-4-yl)amino)nicotinonitrile] the figure was under 500 nM. Consider `COCCC(=O)N1CCN(c2nc(C3CC3)c(-c3ccccc3CO)cc2C#N)C[C@H]1C` [Compound 344, (R)-6-cyclopropyl-5-(2-hydroxymethyl-phenyl)-2-[4-(3-methoxy-propionyl)-3-methyl-piperazin-1-yl]-nicotinonitrile], for which the concentration for half-maximal inhibition (IC50) lay within 500 to 1000 nM.
